Reference: publication PMC3951999 (Cancer cell, 2011)
Read-outs that look alike come from different tables or passages of the source. One block for each compound: values may come before it.

Columns and labels:
[1] = system: BV173R cells; test: Cell proliferation and apoptosis; settings: for cell death (apoptotic sub-G1 cells): 72 hr, absence of PD184352
[2] = system: BCR-ABL^T315I Ba/F3 cells; test: Western blots of CRAF immunoprecipitates and lysates, BCR-ABL^T315I Ba/F3 cells
[3] = system: BCR-ABL Ba/F3 cells; test: Western blots of CRAF immunoprecipitates and lysates, BCR-ABL Ba/F3 cells
[4] = target: BRAF (Homo sapiens, UniProt P15056); test: RAF kinase assay, myc-tagged BRAF captured from COS cells; settings: various GNF-2 concentrations, 30 min
Sequence of BRAF (P15056 whole entry): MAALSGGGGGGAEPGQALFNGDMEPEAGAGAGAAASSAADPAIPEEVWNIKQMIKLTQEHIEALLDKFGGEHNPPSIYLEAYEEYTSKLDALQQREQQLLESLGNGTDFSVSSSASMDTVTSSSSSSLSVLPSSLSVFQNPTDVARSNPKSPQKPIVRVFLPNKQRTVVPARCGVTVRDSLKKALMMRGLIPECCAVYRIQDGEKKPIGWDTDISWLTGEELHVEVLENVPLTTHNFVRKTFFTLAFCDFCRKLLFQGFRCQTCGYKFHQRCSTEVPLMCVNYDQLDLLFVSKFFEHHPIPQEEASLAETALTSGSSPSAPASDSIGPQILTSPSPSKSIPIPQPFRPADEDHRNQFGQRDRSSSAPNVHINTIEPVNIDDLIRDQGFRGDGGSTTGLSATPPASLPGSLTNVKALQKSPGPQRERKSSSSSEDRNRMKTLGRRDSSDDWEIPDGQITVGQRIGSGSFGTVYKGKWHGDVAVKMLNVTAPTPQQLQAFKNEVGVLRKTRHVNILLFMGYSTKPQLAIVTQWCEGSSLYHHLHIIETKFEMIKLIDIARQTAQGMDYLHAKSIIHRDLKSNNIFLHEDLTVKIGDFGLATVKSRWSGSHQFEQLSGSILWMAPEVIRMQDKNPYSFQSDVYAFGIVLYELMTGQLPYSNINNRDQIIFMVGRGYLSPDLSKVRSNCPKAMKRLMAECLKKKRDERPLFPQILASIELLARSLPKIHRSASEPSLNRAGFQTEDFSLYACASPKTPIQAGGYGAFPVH

[5] = system: K562R cells; test: Western blots, K562R cells; assay type: cell-based, human
[6] = target: T1, CRAF (Mus musculus, UniProt Q99N57); test: Endogenous CRAF kinase activity in BCR-ABL Ba/F3 cells
T1 sequence (Q99N57 whole entry): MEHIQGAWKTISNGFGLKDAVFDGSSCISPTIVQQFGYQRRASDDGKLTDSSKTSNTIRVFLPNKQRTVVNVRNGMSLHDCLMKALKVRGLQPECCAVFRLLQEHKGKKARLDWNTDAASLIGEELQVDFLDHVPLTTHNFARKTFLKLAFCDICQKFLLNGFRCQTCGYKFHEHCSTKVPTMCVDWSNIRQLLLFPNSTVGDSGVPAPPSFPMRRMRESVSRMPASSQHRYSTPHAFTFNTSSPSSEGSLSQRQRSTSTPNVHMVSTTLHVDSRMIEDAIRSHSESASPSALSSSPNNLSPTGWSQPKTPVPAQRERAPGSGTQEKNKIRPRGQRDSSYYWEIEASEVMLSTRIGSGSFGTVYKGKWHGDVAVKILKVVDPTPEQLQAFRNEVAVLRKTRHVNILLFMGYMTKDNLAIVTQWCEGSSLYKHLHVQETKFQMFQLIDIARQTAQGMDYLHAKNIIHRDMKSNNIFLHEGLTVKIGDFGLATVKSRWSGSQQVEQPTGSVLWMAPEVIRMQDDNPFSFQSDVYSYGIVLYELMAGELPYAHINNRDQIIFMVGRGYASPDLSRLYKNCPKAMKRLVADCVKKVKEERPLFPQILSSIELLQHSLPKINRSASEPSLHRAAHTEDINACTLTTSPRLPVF

[7] = system: mononuclear cells harbouring native BCR-ABL from newly diagnosed CML patients; settings: primary BCR-ABL cells; nilotinib 1μM, PD184352 0.3μM, 96 hr
[8] = system: K562 cells; test: Western blots of CRAF immunoprecipitates and lysates, K562 cells; assay type: cell-based, human; settings: for BRAF binding to CRAF: imatinib 10μM, nilotinib 1μM, dasatinib 5μM
[9] = target: T1, CRAF; settings: BCR-ABL^T315I Ba/F3 cells
[10] = system: CD34+ hematopoietic cells from healthy individuals; test: Cell proliferation; settings: nilotinib 1μM, PD184352 0.3μM, 96 hr
[11] = system: BCR-ABL Ba/F3 cells; test: Cell proliferation, BCR-ABL Ba/F3 cells; settings: PD184352 2μM, imatinib 3μM, nilotinib 1μM, 4 days
[12] = system: K562 cells expressing HRAS^G12V; assay type: cell-based, human; settings: for BRAF binding to CRAF: imatinib 10μM, nilotinib 1μM, dasatinib 5μM; for MEK and ERK phosphorylation: pathway already saturated
[13] = system: BCR-ABL^T315I expressing mononuclear cells from imatinib-resistant CML patients; test: Cell proliferation; settings: primary BCR-ABL^T315I cells; nilotinib 1μM, PD184352 0.3μM, 96 hr
[14] = target: T2, CRAF (Homo sapiens, UniProt P04049); settings: D04 cells; imatinib 10μM, nilotinib 1μM, dasatinib 5μM, 3 hr
[15] = target: T2, CRAF; test: RAF kinase assay, myc-tagged CRAF captured from COS cells; settings: imatinib 10μM, nilotinib 1μM, dasatinib 5μM
[16] = system: RAS; test: RAS activity in K562 cells; assay type: cell-based, human
[17] = system: RAS; test: RAS-GTP capture assay, BCR-ABL Ba/F3 cells; assay type: cell-based, murine; settings: nilotinib 1μM, 60 min
[18] = system: BV173 cells; test: Western blots of CRAF immunoprecipitates and lysates, BV173 cells; assay type: cell-based, human
[19] = patient plasma; ref Weisberg et al., 2007; Demetri et al., 2002; cited from earlier work
[20] = system: D04 cells (NRAS^Q61L); settings: western blot
[21] = system: BCR-ABL^T315I Ba/F3 allografts; test: Tumor allograft growth, BCR-ABL^T315I Ba/F3 cells in nude mice; assay type: in vivo; settings: BCR-ABL^T315I tumors; 25 mg/kg, oral gavage daily
[22] = target: CRAF^T421N (Homo sapiens, UniProt P04049, T421N); test: RAF kinase assay, myc-tagged CRAF^T421N captured from COS cells; settings: gatekeeper mutant; imatinib 10μM, nilotinib 1μM, dasatinib 5μM
[23] = system: RAS; test: RAS activity in K562R cells; assay type: cell-based, human
[24] = system: BCR-ABL Ba/F3 allografts; test: Tumor allograft growth, BCR-ABL Ba/F3 cells in nude mice; assay type: in vivo; settings: BCR-ABL tumors; 25 mg/kg, oral gavage daily
[25] = system: Ba/F3 cells expressing BCR-ABL^G250E/T315I, BCR-ABL^E255K/T315I and BCR-ABL^E255V/T315I; test: Western blots, Ba/F3 cells expressing compound BCR-ABL mutants; assay type: cell-based, murine; settings: Ba/F3 cells with compound BCR-ABL mutants
[26] = system: BCR-ABL Ba/F3 cells; test: Apoptosis; settings: 4 days
[27] = system: K562 cells; test: Apoptosis; assay type: cell-based, human; settings: PD184352 1μM, 4 days
[28] = system: BV173 cells; test: Cell proliferation and apoptosis; settings: PD184352 0.2μM, nilotinib 0.1μM, 6 days
[29] = system: BCR-ABL^T315I Ba/F3 cells; test: Cell proliferation, BCR-ABL^T315I Ba/F3 cells
[30] = system: K562R cells; test: Apoptosis; assay type: cell-based, human; settings: PD184352 1μM, 4 days
[31] = system: BV173R cells (BCR-ABL^T315I)
[32] = system: SW620 (KRAS^G12V), Panc1 (KRAS^G12D) and H460 (KRAS^Q61H) cells; test: Western blot for MEK and ERK activation in KRAS mutant cells; assay type: cell-based, human; settings: imatinib 10μM, nilotinib 1μM, dasatinib 5μM
[33] = system: BCR-ABL^G250E/T315I, BCR-ABL^E255K/T315I and BCR-ABL^E255V/T315I Ba/F3 cells; test: Cell proliferation, Ba/F3 cells expressing compound BCR-ABL mutants; settings: Ba/F3 cells with compound BCR-ABL mutants; PD184352 2μM, nilotinib 1μM, 4 days
[34] = system: BRAF binding to CRAF; test: BRAF binding to CRAF with PLX4720; assay type: cell-based; settings: Fig S3C; cells not given
[35] = system: BCR-ABL^T315I Ba/F3 cells; test: Apoptosis; settings: 4 days

Compound: Cn1c(Nc2ccc(C(F)(F)F)cc2)nc2cc(Oc3ccnc(-c4ncc(C(F)(F)F)[nH]4)c3)ccc21 [RAF265]
- cell death (apoptotic sub-G1 cells) [1]: induced cell death
- BCR-ABL and CRKL phosphorylation ([2]; BCR-ABL^T315I Ba/F3 cells): did not inhibit BCR-ABL or CRKL phosphorylation
- BRAF binding to CRAF ([2]; BCR-ABL^T315I Ba/F3 cells): induced BRAF binding to CRAF

- BRAF activity in vitro [4]: did not inhibit BRAF activity in vitro
Compound: NC(=O)c1cccc(-c2cc(Nc3ccc(OC(F)(F)F)cc3)ncn2)c1 [GNF-2]
- BCR-ABL (Y245) and CRKL (Y207) phosphorylation ([3]; BCR-ABL Ba/F3 cells): blocked
- CRAF (S338) phosphorylation, MEK and ERK activity/phosphorylation ([3]; BCR-ABL Ba/F3 cells): blocked
- BCR-ABL and CRKL phosphorylation ([2]; BCR-ABL^T315I Ba/F3 cells): did not block BCR-ABL or CRKL phosphorylation
- BRAF binding to CRAF ([2]; BCR-ABL^T315I Ba/F3 cells): did not induce BRAF binding to CRAF
- CRAF (S338) phosphorylation, MEK and ERK activity/phosphorylation ([2]; BCR-ABL^T315I Ba/F3 cells): did not increase CRAF, MEK or ERK phosphorylation

Compound: Oc1cc(-c2nc(-c3ccccc3)[nH]c2-c2ccncc2)ccc1Cl [L779450]
- BCR-ABL (Y245) and CRKL (Y207) phosphorylation ([3]; BCR-ABL Ba/F3 cells): Neither agent inhibited BCR-ABL or CRKL phosphorylation
- BRAF binding to CRAF ([3]; BCR-ABL Ba/F3 cells): stimulated BRAF binding to CRAF
- CRAF (S338) phosphorylation, MEK and ERK activity/phosphorylation ([3]; BCR-ABL Ba/F3 cells): stimulated

Compound: CNC(=O)c1cc(Oc2ccc(NC(=O)Nc3ccc(Cl)c(C(F)(F)F)c3)cc2)ccn1 [sorafenib]
- cell death (apoptotic sub-G1 cells) [1]: induced cell death

Compound: Cc1cn(-c2cc(NC(=O)c3ccc(C)c(Nc4nccc(-c5cccnc5)n4)c3)cc(C(F)(F)F)c2)cn1 [nilotinib]
- BCR-ABL and CRKL phosphorylation [5]: blocked BCR-ABL and CRKL phosphorylation
- CRAF, MEK and ERK phosphorylation [5]: did not block CRAF, MEK or ERK phosphorylation
- CRAF activity [6]: blocked CRAF activity
- cell proliferation [7]: inhibited the proliferation
- BCR-ABL and CRKL phosphorylation [8]: inhibited BCR-ABL and CRKL phosphorylation
- CRAF, MEK and ERK phosphorylation [8]: inhibited CRAF, MEK and ERK phosphorylation
- BRAF binding to CRAF [8]: did not induce BRAF binding to CRAF
- CRAF activity [9]: activated CRAF
- cell proliferation [10]: resistant
- cell growth [11]: sensitive
- BRAF binding to CRAF [12]: induced BRAF binding to CRAF
- MEK and ERK phosphorylation [12]: did not increase MEK and ERK phosphorylation
- BRAF binding to CRAF [3]: did not affect BRAF binding to CRAF
- BCR-ABL (Y245) and CRKL (Y207) phosphorylation ([3]; BCR-ABL Ba/F3 cells): blocked
- cell growth [13]: did not affect the growth
- endogenous CRAF kinase activity [14]: activated
- CRAF kinase activity in vitro [15]: inhibited
- RAS activity [16]: suppressed RAS activity
- RAS activity (RAS-GTP) [17]: blocked RAS activity
- BCR-ABL and CRKL phosphorylation [18]: inhibited BCR-ABL and CRKL phosphorylation
- BRAF binding to CRAF [18]: did not induce BRAF binding to CRAF
- MEK and ERK activity [18]: inhibited MEK and ERK
- peak plasma/serum concentration [19]: ~4 µM
- lowest concentration stimulating robust MEK and ERK phosphorylation [20]: 100 nM
- tumor growth [21]: insensitive
- CRAF^T421N kinase activity in vitro [22]: resistant
- RAS activity [23]: did not inhibit RAS
- tumor growth [24]: strongly suppressed
- BCR-ABL and CRKL phosphorylation [25]: did not inhibit BCR-ABL or CRKL phosphorylation
- BRAF binding to CRAF, MEK and ERK activation [25]: induced BRAF binding to CRAF as well as MEK and ERK activation
- apoptosis [26]: induced apoptosis
- apoptosis / cell death [27]: induced apoptosis
- cell proliferation and apoptosis [28]: inhibited cell proliferation and induced apoptosis
- cell growth [29]: resistant
- growth / cell death [30]: did not affect the growth
- BRAF binding to CRAF [2]: enhanced BRAF binding to CRAF
- CRAF (S338) phosphorylation, MEK and ERK activity/phosphorylation [2]: induced CRAF phosphorylation on S338 (Fig 3C) and activated CRAF (Fig 3D), MEK and ERK
- BCR-ABL and CRKL phosphorylation ([2]; BCR-ABL^T315I Ba/F3 cells): did not inhibit BCR-ABL or CRKL phosphorylation
- BRAF binding to CRAF [31]: induced BRAF binding to CRAF
- MEK and ERK activity [31]: activated MEK and ERK
- MEK and ERK activation [32]: activated MEK and ERK
- cell proliferation [33]: did not affect proliferation

Compound: CCCS(=O)(=O)Nc1ccc(F)c(C(=O)c2c[nH]c3ncc(Cl)cc23)c1F [PLX4720]
- BRAF binding to CRAF [34]: did not induce strong binding of BRAF to CRAF

Compound: CN(C)CCOc1ccc(-c2nc(-c3ccncc3)c(-c3ccc4c(c3)CC/C4=N\O)[nH]2)cc1 [SB590885]
- BCR-ABL (Y245) and CRKL (Y207) phosphorylation ([3]; BCR-ABL Ba/F3 cells): Neither agent inhibited BCR-ABL or CRKL phosphorylation
- BRAF binding to CRAF ([3]; BCR-ABL Ba/F3 cells): stimulated BRAF binding to CRAF
- CRAF (S338) phosphorylation, MEK and ERK activity/phosphorylation ([3]; BCR-ABL Ba/F3 cells): stimulated

Compound: O=C(NOCC1CC1)c1ccc(F)c(F)c1Nc1ccc(I)cc1Cl [PD184352]
- apoptosis [35]: did not induce apoptosis
- cell proliferation [10]: resistant
- cell growth [11]: did not inhibit the growth
- cell growth [13]: did not affect the growth
- tumor growth [21]: insensitive
- cell proliferation and apoptosis ([1]; PD184352 0.2μM, nilotinib 0.1μM, 6 days): did not inhibit cell proliferation or induce apoptosis
- apoptosis [26]: did not induce apoptosis
- apoptosis / cell death [27]: did not kill these cells
- cell proliferation and apoptosis [28]: did not inhibit cell proliferation or induce apoptosis
- growth / cell death [30]: did not affect the growth
- cell proliferation [33]: did not affect proliferation

Compound: Cc1nc(Nc2ncc(C(=O)Nc3c(C)cccc3Cl)s2)cc(N2CCN(CCO)CC2)n1 [dasatinib]
- BRAF binding to CRAF [8]: did not induce BRAF binding to CRAF
- BRAF binding to CRAF [12]: induced BRAF binding to CRAF
- MEK and ERK phosphorylation [12]: did not increase MEK and ERK phosphorylation
- endogenous CRAF kinase activity [14]: activated
- CRAF kinase activity in vitro [15]: inhibited
- BCR-ABL and CRKL phosphorylation [18]: inhibited BCR-ABL and CRKL phosphorylation
- BRAF binding to CRAF [18]: did not induce BRAF binding to CRAF
- MEK and ERK activity [18]: inhibited MEK and ERK
- peak plasma/serum concentration [19]: ~0.09 µM
- lowest concentration stimulating robust MEK and ERK phosphorylation [20]: 100 nM
- CRAF^T421N kinase activity in vitro [22]: resistant
- MEK and ERK activation [32]: activated MEK and ERK
